From US20210330788A1, “USES OF ANTI-BCMA CHIMERIC ANTIGEN RECEPTORS” (CELGENE CORPORATION, priority 2018, published 2021)

System: human multiple myeloma (RPMI-8226) tumors
Test: Sub-cutaneous human multiple myeloma (RPMI-8226) tumor model in NSG mice (FIGS. 8A and 8B)
Type: in vivo, NOD scid gamma (NSG) mice
Conditions: ˜100mm^3 tumors; 10^7 CAR T cells or Bortezomib; two independent experiments
Procedure: Hyperactivation and increased apoptosis could negatively impact CAR T cell persistence in patients and ultimately clinical efficacy. The anti-tumor function of anti-BCMA02 CAR T cells and anti-BCMA10 CAR T cells was examined in a mouse tumor model. NOD-scid gamma (NSG) mice with ˜100mm^3 experimental sub-cutaneous human multiple myeloma (RPMI-8226) tumors were treated with 10^7 anti-BCMA02 CAR T cells, 10^7 anti-BCMA10 CAR T cells, or Bortezomib (VELCADE®). RPMI-8226 growth was monitored with calipers.

Structure (SMILES): CC(C)C[C@H](NC(=O)[C@H](Cc1ccccc1)NC(=O)c1cnccn1)B(O)O [Bortezomib]
- RPMI-8226 tumor growth (calipers): controlled tumor growth
